Reference: article PMC2263054, “Functional evolution of the vitamin D and pregnane X receptors” (BMC Evolutionary Biology, 2007)

Legend:
EROD activity [1] = experiment: EROD assay in sea lamprey primary hepatocytes; settings: 24–48 hr exposure
[2] = system: ethoxyresorufin O-deethylase (EROD) activity (CYP1A-like activity); experiment: EROD assay in zebrafish primary hepatocytes; settings: for maximal rate of EROD activity: zebrafish primary hepatocytes, 24 hour exposure (Figure 3 legend: 48-hour)
Procedure: (§1) The cells are cultured at 26°C in ambient atmosphere.

[3] = system: 6β- and 12α-hydroxylation of testosterone; experiment: testosterone hydroxylation (HPLC) in African clawed frog primary hepatocytes; format: cell-based, Xenopus laevis; settings: relative to vehicle control
Procedure: Xenopus laevis primary hepatocytes were cultured by a protocol adapted from a published report. Frogs are sacrificed with MS-222, rinsed with 70% ethanol, and the liver lobes perfused via the heart, initially with 375 mL Barth (88 mM NaCl, 1 mM K2SO4, and 10 mM HEPES-NaOH, pH 7.4) containing 0.82 mM MgCl2 and 0.1 mg/mL heparin, and then with 25 mL Barth containing 2.22 mM Ca(NO3)2, 2.74 mM CaCl2, and 200 U/mL type I collagenase (Worthington Chemicals, Lakewood, NJ). Livers are minced to fine pieces in 12.5 mL Barth-collagenase solution and then incubated for 10 min at room temperature, periodically disaggregating the liver pieces with a Pasteur pipette. The liver cells are then placed on a shaking incubator for 5 min at room temperature, followed by another 10 min of periodic pipetting to complete disaggregation. Cells are then filtered through a 130 μm Nitex nylon mesh (Fisher Scientific), following by spinning at 500 g for 5 min at 4°C. The supernatant is then aspirated and diluted to 50 mL with Barth plus MgCl2 and then allowed to settle while cooled in ice for 30 min. The supernatant is removed, and the cellular pellet is resuspended and subjected to one more round of nylon mesh filtration, dilution in Barth plus MgCl2, and settling while cooled in ice. The supernatant is removed and the remaining cells are washed once with Barth plus MgCl2 and then centrifuged at 500 g for 5 min at 4°C. The cells are then resuspended in 0.6 × Coon's Modified Ham's F-12 medium (Invitrogen) supplemented with 0.1 × Barth (88 mM NaCl, 1 mM K2SO4, 10 mM HEPES), 200 U/mL penicillin G, 100 μg/mL streptomycin sulfate, 2 mM glutamine, 0.2% glucose, and 10 μg/mL bovine insulin (Calbiochem), with the final pH adjusted to 7.5. […] Cells are cultured at 20°C in ambient atmosphere.
Testosterone metabolites were identified and quantitated by HPLC. […] The supernatant was then injected into the HPLC.

[4] = system: flurbiprofen 4-hydroxylation activity (CYP2C-like activity); settings: zebrafish primary hepatocytes, 48-hour exposure; TCDD 1 nM, androstanol 200 μM
[5] = system: testosterone 6β-hydroxylation activity (CYP3A-like activity); experiment: testosterone hydroxylation (HPLC) in zebrafish primary hepatocytes
Procedure: as §1
(§2) 100 μL of sample, calibration standard, or quality material standard were pipetted into separate microcentrifuge tubes and mixed with 100 μL of methanol. Samples were vortexed and centrifuged at 13,000 rpm for 4 min. The supernatant was then injected into the HPLC.
(§3) The flow rate was 1.2 mL/min and total run time was 25 min.

Xenopus laevis VDR = target: T1, Xenopus laevis VDR (Xenopus laevis, UniProt O13124); experiment: luciferase reporter transactivation assay in HepG2-NTCP cells, GAL4/xlVDR LBD chimera with tk-UAS-Luc; format: cell-based; settings: for Xenopus VDR EC50 ± SD: HepG2-NTCP cells, luciferase reporter, unit not given, also cells saying No effect
T1 sequence (O13124 90-422): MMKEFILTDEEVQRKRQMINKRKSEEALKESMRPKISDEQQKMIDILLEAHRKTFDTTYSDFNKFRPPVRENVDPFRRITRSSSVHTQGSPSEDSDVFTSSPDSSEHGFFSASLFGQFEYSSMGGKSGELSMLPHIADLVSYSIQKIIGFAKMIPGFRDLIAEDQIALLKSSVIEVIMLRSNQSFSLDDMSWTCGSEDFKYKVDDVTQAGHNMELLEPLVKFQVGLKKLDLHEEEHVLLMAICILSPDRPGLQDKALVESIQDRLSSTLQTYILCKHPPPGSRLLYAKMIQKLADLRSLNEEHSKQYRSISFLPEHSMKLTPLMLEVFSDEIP

zebrafish PXR = settings: luciferase reporter in HepG2 cells, normalized to 20 μM androstanol
Mouse VDR = target: T2, Mouse VDR (Mus musculus, UniProt P48281); experiment: luciferase reporter transactivation assay in HepG2-NTCP cells, full-length mVDR with CYP3A4-PXRE-Luc; settings: HepG2-NTCP cells, luciferase reporter; unit not given; also cells saying No effect
T2 sequence (P48281 1-422): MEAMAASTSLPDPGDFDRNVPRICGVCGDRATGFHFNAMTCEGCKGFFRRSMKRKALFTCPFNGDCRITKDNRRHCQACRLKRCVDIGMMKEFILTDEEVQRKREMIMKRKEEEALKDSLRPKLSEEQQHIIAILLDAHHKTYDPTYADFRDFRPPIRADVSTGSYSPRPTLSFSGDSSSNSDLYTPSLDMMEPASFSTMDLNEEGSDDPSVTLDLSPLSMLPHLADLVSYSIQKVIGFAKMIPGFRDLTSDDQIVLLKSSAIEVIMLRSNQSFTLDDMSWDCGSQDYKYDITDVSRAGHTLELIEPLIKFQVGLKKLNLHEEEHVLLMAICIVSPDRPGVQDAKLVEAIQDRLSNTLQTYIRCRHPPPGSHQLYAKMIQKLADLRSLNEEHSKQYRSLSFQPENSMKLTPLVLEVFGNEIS

EROD activity [6] = experiment: EROD assay in African clawed frog primary hepatocytes; format: cell-based, Xenopus laevis; settings: 48 hour exposure
Procedure: Xenopus laevis primary hepatocytes were cultured by a protocol adapted from a published report. Frogs are sacrificed with MS-222, rinsed with 70% ethanol, and the liver lobes perfused via the heart, initially with 375 mL Barth (88 mM NaCl, 1 mM K2SO4, and 10 mM HEPES-NaOH, pH 7.4) containing 0.82 mM MgCl2 and 0.1 mg/mL heparin, and then with 25 mL Barth containing 2.22 mM Ca(NO3)2, 2.74 mM CaCl2, and 200 U/mL type I collagenase (Worthington Chemicals, Lakewood, NJ). Livers are minced to fine pieces in 12.5 mL Barth-collagenase solution and then incubated for 10 min at room temperature, periodically disaggregating the liver pieces with a Pasteur pipette. The liver cells are then placed on a shaking incubator for 5 min at room temperature, followed by another 10 min of periodic pipetting to complete disaggregation. Cells are then filtered through a 130 μm Nitex nylon mesh (Fisher Scientific), following by spinning at 500 g for 5 min at 4°C. The supernatant is then aspirated and diluted to 50 mL with Barth plus MgCl2 and then allowed to settle while cooled in ice for 30 min. The supernatant is removed, and the cellular pellet is resuspended and subjected to one more round of nylon mesh filtration, dilution in Barth plus MgCl2, and settling while cooled in ice. […]

Sea lamprey VDR = target: T3, Sea lamprey VDR (Petromyzon marinus, UniProt Q7ZZY9); format: cell-based; settings: for Sea lamprey VDR EC50 ± SD: HepG2-NTCP cells, luciferase reporter, unit not given, also cells saying No effect
T3 sequence (Q7ZZY9 92-406): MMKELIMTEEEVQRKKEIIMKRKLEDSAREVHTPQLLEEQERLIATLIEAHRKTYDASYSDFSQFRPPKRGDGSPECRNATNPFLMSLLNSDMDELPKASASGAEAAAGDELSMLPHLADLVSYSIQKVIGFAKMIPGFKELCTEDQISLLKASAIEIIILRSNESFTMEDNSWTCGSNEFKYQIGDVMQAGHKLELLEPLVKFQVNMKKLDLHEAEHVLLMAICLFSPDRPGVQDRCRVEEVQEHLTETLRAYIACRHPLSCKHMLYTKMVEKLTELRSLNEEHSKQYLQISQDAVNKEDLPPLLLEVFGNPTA

Zebrafish VDR = target: T4, Zebrafish VDR (Danio rerio, UniProt Q9PTN2); experiment: luciferase reporter transactivation assay in HepG2-NTCP cells, GAL4/zfVDR LBD chimera with tk-UAS-Luc; format: cell-based; settings: for Zebrafish VDR EC50 ± SD: HepG2-NTCP cells, luciferase reporter, unit not given, also cells saying No effect
T4 sequence (Q9PTN2 121-453): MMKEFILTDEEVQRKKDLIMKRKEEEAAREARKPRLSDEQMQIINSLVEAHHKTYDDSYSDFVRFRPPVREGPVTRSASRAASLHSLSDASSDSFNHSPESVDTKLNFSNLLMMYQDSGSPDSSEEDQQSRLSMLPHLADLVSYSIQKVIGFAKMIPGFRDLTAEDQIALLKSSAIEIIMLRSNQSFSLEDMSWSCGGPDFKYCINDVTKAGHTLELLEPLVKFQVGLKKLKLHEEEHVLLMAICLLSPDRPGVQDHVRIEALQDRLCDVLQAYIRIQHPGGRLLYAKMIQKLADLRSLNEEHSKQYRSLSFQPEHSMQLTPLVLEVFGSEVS

[7] = system: testosterone 6β-hydroxylation; experiment: testosterone hydroxylation (HPLC) in sea lamprey primary hepatocytes; format: cell-based; settings: concentration ranges per compound
Procedure: as §2, §3

Human VDR = target: T5, Human VDR (Homo sapiens, UniProt P11473); experiment: luciferase reporter transactivation assay in HepG2-NTCP cells, full-length hVDR with CYP3A4-PXRE-Luc; settings: HepG2-NTCP cells, luciferase reporter; unit not given; also cells saying No effect
T5 sequence (P11473 1-427): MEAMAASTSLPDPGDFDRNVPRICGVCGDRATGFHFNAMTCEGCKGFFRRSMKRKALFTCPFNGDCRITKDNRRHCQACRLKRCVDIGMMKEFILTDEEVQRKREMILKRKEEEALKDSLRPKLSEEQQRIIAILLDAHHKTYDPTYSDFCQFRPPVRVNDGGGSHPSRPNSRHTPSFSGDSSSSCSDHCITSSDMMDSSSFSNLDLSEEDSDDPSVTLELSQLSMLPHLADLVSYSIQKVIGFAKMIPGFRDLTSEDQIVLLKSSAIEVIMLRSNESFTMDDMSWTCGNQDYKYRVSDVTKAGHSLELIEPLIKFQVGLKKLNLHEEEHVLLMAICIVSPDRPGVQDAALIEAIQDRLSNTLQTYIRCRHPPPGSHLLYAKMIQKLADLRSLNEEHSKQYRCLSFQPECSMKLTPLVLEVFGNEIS

[8] = system: Flurbiprofen 4-hydroxylation; experiment: flurbiprofen hydroxylation assay in sea lamprey primary hepatocytes; format: cell-based; settings: 48 hour treatment, 5α-petromyzonol 20 μM, 3-MC 5 μM, basal 2.8
[9] = screening for activators, at least three concentrations of each drug

SMILES	effect on EROD activity (EROD activity [1])	maximal rate of EROD activity [2] [pmol/min/mg protein]	Xenopus VDR EC50 ± SD (Xenopus laevis VDR)	Mouse VDR EC50 ± SD (Mouse VDR)	Sea lamprey VDR EC50 ± SD (Sea lamprey VDR)	Zebrafish VDR EC50 ± SD (Zebrafish VDR)	effect on testosterone 6β-hydroxylation [7]	Human VDR EC50 ± SD (Human VDR)	Flurbiprofen 4-hydroxylation activity [8] [nmol/min/mg protein]	other results
Clc1cc2c(cc1Cl)Oc1cc(Cl)c(Cl)cc1O2 [2,3,7,8-Tetrachlorodibenzo-p-dioxin, 2,3,7,8-tetrachlorodibenzo-p-dioxin]	did not alter EROD activity	33.0	No effect	No effect	No effect	No effect	None of these compounds produced significant increases in testosterone 6β-hydroxylation	No effect	–	EC50 at 24 h ([2]; zebrafish, pH 7.8): 0.15 ± 0.022 nM; effect on 6β- and 12α-hydroxylation of testosterone [3]: neither activity was substantially increased relative to vehicle control; effect on flurbiprofen 4-hydroxylation activity [4]: Lesser increases relative to vehicle control; Ciona VDR/PXR relative efficacy (Ciona VDR/PXR; relative to maximal reference compound (20 μM 6-formylindolo-[3,2-b]-carbazole, efficacy = 1.0)): 1.80; activation of ciVDR/PXR (Ciona VDR/PXR; unpublished data of the authors): activated; EC50 at 48 h ([5]; zebrafish): 0.154 ± 0.03 nM; maximal rate of testosterone 6β-hydroxylation ([5]; zebrafish primary hepatocytes, 48-hour exposure): 2830 pmol/min/mg protein; activation of recombinant zebrafish PXR (zebrafish PXR): all activate recombinant zebrafish PXR; maximal rate of EROD activity (EROD activity [6]): 9.8 pmol/min/mg protein; EC50 (EROD activity [6]; Xenopus laevis, Hepatocyte, read-out: EC50 for increase of EROD activity): 6.5 ± 0.77 nM
Cc1ccc2cc3c(ccc4ccccc43)c3c2c1CC3 [3-Methylcholanthrene]	did not alter EROD activity	28.1	–	–	–	–	None of these compounds produced significant increases in testosterone 6β-hydroxylation	–	0.33	EC50 ([2]; zebrafish, pH 7.8): 373 ± 22 nM; Effect on Xenopus laevis VDR (Xenopus laevis VDR; [9]): No effect; Effect on sea lamprey VDR (Sea lamprey VDR; [9]): No effect; Effect on zebrafish VDR (Zebrafish VDR; [9]): No effect
C[C@H](CCCO)[C@H]1CC[C@H]2[C@@H]3[C@H](O)C[C@H]4C[C@H](O)CC[C@]4(C)[C@H]3C[C@H](O)[C@]12C [5α-Petromyzonol, 5α-cholan-3α,7α,12α,24-tetrol]	did not alter EROD activity	–	No effect	No effect	No effect	No effect	None of these compounds produced significant increases in testosterone 6β-hydroxylation	No effect	0.21	Ciona VDR/PXR EC50 ± SD (Ciona VDR/PXR; HepG2-NTCP cells, luciferase reporter, unit not given, also cells saying No effect): No effect
